In patent US20230372263A1, “METHODS AND COMPOSITIONS FOR TREATING AMYOTROPHIC LATERAL SCLEROSIS” (Amylyx Pharmaceuticals, Inc., priority 2022, published 2023):
Values belong to the molecule of their own block, whether it stands above or below them.

How the values were obtained:
[1] = clinical; type: in vivo, human; details: human, in vivo; for concentration at 1 h / concentration at 4 h: both sexes
Protocol: • 1. […] Treatment is administered as one sachet daily for the initial 3 weeks and then increased if tolerated to one sachet twice daily. […] Sampling times are randomly assigned to occur at either 1 or 4 hours post-dose at the 12 week visit and the other time at the 24 week visit. • Treatment duration: 24 weeks • 2.
(§1) • Protocol AMX3500: sparse sampling in 87 subjects with ALS. Approximately 2 samples are collected for each subject, 1 or 4 hours post dose following 12 and 24 weeks of treatment. • Protocol A35-002: rich sampling in 14 healthy adults. Approximately 21 samples are collected over 24 hours for each subject on two occasions, once following a high fat meal and the other under fasting conditions.
Subjects were advised to take the drug before a meal. […] Referred to as protocol 3500.
A study was carried out to examine plasma concentration data in various subgroups for the protocol AMX3500 Phase 2 study. This example summarizes plasma concentrations of TUDCA and 2 metabolites, also related acids, UDCA, the de-conjugated TUDCA metabolite, and GUDCA, the glycine conjugate of UDCA.
For each of the 2 treatment arms (treatment and placebo), subjects were further divided into 2 sample sequence groups for schedule of pharmacokinetic measurements: • 1. 1 hour post-dose for the Week 12 visit and 4 hours post-dose for the Week 24 visit • 2. 4 hours post-dose for the Week 12 visit and 1 hour post-dose for the Week 24 visit
Twenty-four distinct medication descriptions were identified as containing antibiotics. Dates of antibiotic use were compared to dates of visits and if the antibiotic use date range contained the visit date, then that visit was flagged for that subject's data for antibiotic use. […] These antibiotics could hypothetically be in a subject's body still if this event occurred. However, it was observed that only a small number of subjects took antibiotics near to visit dates but not overlapping visit dates. In other cases, subjects were taking antibiotics on the date of one visit but not the others. Some subjects are therefore in both categories of antibiotic use and nonuse, though no individual visits for a subject are counted in both categories at the same time.
Subjects whose race were recorded as “Black” or “African American” were evaluated according to the standard Glomerular Filtration Rate (eGFR) rating for that race. The other standard eGFR rating used, sometimes referred to as a standard for people who are White, was applied to subjects of all other races. These rates were analyzed as continuous in mL/min/1.73 m2 units and as the following categories: • 1. Less than 90 mL/min/1.73 m^2 • 2. Equal to or greater than 90 mL/min/1.73 m^2
Age was converted from a continuous variable to 2 categories: • 1. As old or older than 65 years old • 2. Younger than 65 years old
All boxplots boxes are bounded at the 25th and 75th percentile, with whiskers at 10th and 90th percentiles, outliers beyond that as points, the black line as median, and red line as mean.

[2] = clinical; type: in vivo, human; details: human, in vivo; for AUC(0-t): AUC(0-last)
Protocol: as §1
A total of 14 healthy subjects were enrolled in order to have no fewer than 12 subjects complete. A predefined mix of gender was selected.
Each study period followed the same study design (FIG. 1). Subjects were screened for inclusion in the study up to 28 days before dosing. Subjects were admitted to the clinical unit during Study Day −2 for Period 1 and Day −1 for Period 2 and were dosed in the morning of Day 1. On the night prior to Period 1 the subjects in the fasted/fed or fed/fasted sequence were fasted for a minimum of 10 h prior to dosing.
The solution was stirred until the powder was mostly dissolved.
Any departures from the intended regimen were recorded in the eCRFs. All dose administrations were performed in the study center under the supervision of appropriately trained staff.
Subjects were provided with a light snack and were then fasted from all food and drink (except water) until the following morning, when they were provided with a high-fat breakfast. The breakfast was consumed over a maximum period of 25 min, and dosing occurred 30 min after the start of breakfast. Subjects were encouraged to eat their meal evenly over the 25 min period. For this trial the subject was deemed compliant if they consumed >80% of the high-fat standard breakfast.
The subjects in the 24-h baseline and in the fasted condition Period remained fasted up to 4 h post-dose and were offered a standardized meal to be taken between 4.00 and 5.00 h post-dose. Subjects in the fed condition were fasted overnight and received a high-fat standard breakfast 30 minutes pre-dose and then remained fasted for 4.00 to 5.00 h post-dose when they received a standardized meal.
Venous blood samples were withdrawn via an indwelling cannula or by venipuncture according to the time schedule presented in Table 5 Table, Table 6, and Table 7.
Blood samples of approximately 4 mL were collected into 4 mL BD Vacutainer Plastic K2EDTA Tubes with Lavender Hemogard Closure, and was gently inverted approximately 8 times. The tubes were then immediately stored on ice and processed within 60 min of collection by centrifugation at 1500 g for 10 min at 2 to 8° C. The resultant plasma was separated equally into 2 aliquots and transferred to 2 mL appropriately labelled primary and backup polypropylene cryovials.
Actual elapsed time from dosing was to be used for the final plasma PK parameter calculations after database lock.

[3] = Steady-state plasma concentration

- concentration at 1 h ([1]; Plasma Concentration, Mean): 1080 ng/mL
- concentration at 4 h ([1]; Plasma Concentration, Mean): 1300 ng/mL
- concentration at 1 h ([1]; Plasma Concentration, Median): 592 ng/mL
- concentration at 4 h ([1]; Plasma Concentration, Median): 920 ng/mL
- concentration at 1 h [1, 3]: 910 ng/mL
- concentration at 4 h [1, 3]: 1170 ng/mL
- Plasma Concentration, Min ([1]; both): 20.0 ng/mL
- Plasma Concentration, Q1 ([1]; both): 20.0 ng/mL
- steady state reached by ([1]; both): ≤ 12 Week
- Plasma Concentration, Mean ([1]; both, 1 h): 909.9 ng/mL
- Plasma Concentration, Median ([1]; both, 1 h): 614.0 ng/mL
- Plasma Concentration, Min ([1]; both, 4 h): 20.0 ng/mL
- accumulation in plasma after once- or twice-daily dosing [1]: substantial accumulation
- effect of age on steady-state plasma concentration [1]: no difference
- effect of mild renal insufficiency on steady-state plasma concentration [1]: no discernible difference
- AUC(0-inf) ([2]; both sexes, AUC(0-inf)): 11300 ng·h/mL
- AUC(0-t) ([2]; both sexes): 5540 ng·h/mL
- Cmax ([2]; both sexes): 639 ng/mL
- half-life ([2]; both sexes, elimination half-lives (range)): 3.01 to 7.58 h
- Cmax ([2]; both sexes, po): 639 ng/mL
- AUC(0-inf) ([2]; both): 11300 ng·h/mL
- AUC(0-last) Ratio of adj geo means Fed/Fasted (GMR) ([2]; both): 136.34%
- AUG(0-last) ([2]; both): 5540 (72.5) ng.h/ml
- Cmax Ratio of adj geo means Fed/Fasted (GMR) ([2]; both): 112.17%
- Tmax Median ([2]; both): 6.000 h
- increase in AUC(0-last), fed relative to fasted ([2]; both): ~36%
- increase in Cmax, fed relative to fasted ([2]; both): approximately 12%
- peak exposure to metabolite as % of that for parent ([2]; both): approximately 86%
- time of maximum plasma concentrations (range) ([2]; both): 0.25 to 20.00 h
- total exposure to metabolite based on AUC(0-last) as % of that for parent ([2]; both): approximately 127%
- AUC(0-last), Adj Geo Mean ([2]; both, po): 5530 ng·h/mL
- AUC(0-last), Ratio of adj geo means Fed/Fasted ([2]; both, po): 136.34%
- Cmax, Adj Geo Mean ([2]; both, po): 635 ng/mL
- Cmax, Ratio of adj geo means Fed/Fasted ([2]; both, po): 112.17%
- Tmax Median ([2]; both, po): 6.000 h
Compound: C[C@H](CCC(=O)O)[C@H]1CC[C@H]2[C@@H]3[C@@H](O)C[C@@H]4C[C@H](O)CC[C@]4(C)[C@H]3CC[C@]12C [UDCA, ursodeoxycholic acid]
- steady-state plasma concentrations versus endogenous levels [1]: at least an order of magnitude higher than endogenous levels

- concentration at 1 h ([1]; Plasma Concentration, Mean): 1020 ng/mL
- concentration at 4 h ([1]; Plasma Concentration, Mean): 1510 ng/mL
- concentration at 1 h ([1]; Plasma Concentration, Median): 773 ng/mL
- concentration at 4 h ([1]; Plasma Concentration, Median): 1500 ng/mL
- concentration at 1 h [1, 3]: 1070 ng/mL
- concentration at 4 h [1, 3]: 1320 ng/mL
- steady state reached by ([1]; both): ≤ 12 Week
- Plasma Concentration, Median ([1]; both, 1 h): 815.0 ng/mL
- Plasma Concentration, Median ([1]; both, 4 h): 1190.0 ng/mL
- Plasma Concentration, Min ([1]; both, 4 h): 20.0 ng/mL
- accumulation in plasma after once- or twice-daily dosing [1]: substantial accumulation
- effect of age on steady-state plasma concentration [1]: no difference
- effect of mild renal insufficiency on steady-state plasma concentration [1]: no discernible difference
- Tmax ([2]; both sexes, Tmax Median): 16 h
- AUC(0-t) ([2]; both sexes, po, Geometric Mean): 4140 ng·h/mL
- Cmax ([2]; both sexes, po): 381 ng/mL
- Cmax ([2]; both sexes, po, Geometric Mean): 381 ng/mL
- half-life ([2]; both sexes, po, T1/2, Geometric Mean): 12.7 h
- AUC(0-last) Ratio of adj geo means Fed/Fasted (GMR) ([2]; both): 137.31%
- AUG(0-last) ([2]; both): 5060 (88.2) ng.h/ml
- Cmax Ratio of adj geo means Fed/Fasted (GMR) ([2]; both): 134.45%
- MR Cmax (metabolite to parent ratio) ([2]; both): 0.571
- T1/2 ([2]; both): 12.744 h
- increase in AUC(0-last), fed relative to fasted ([2]; both): ~37%
- peak exposure to metabolite as % of that for parent ([2]; both): approximately 51%
- time of maximum plasma concentrations (range) ([2]; both): 6.00 to 20.00 h
- total exposure to metabolite based on AUC(0-last) as % of that for parent ([2]; both): approximately 95%
- AUC(0-last), Adj Geo Mean ([2]; both, po): 4200 ng·h/mL
- AUC(0-last), Max ([2]; both, po): 12000 ng·h/mL
- AUC(0-last), Median ([2]; both, po): 3400 ng·h/mL
- AUC(0-last), Min ([2]; both, po): 1840 ng·h/mL
- AUC(0-last), Ratio of adj geo means Fed/Fasted ([2]; both, po): 137.31%
- Cmax, Adj Geo Mean ([2]; both, po): 382 ng/mL
- Cmax, Max ([2]; both, po): 1420 ng/mL
- Cmax, Median ([2]; both, po): 353 ng/mL
- Cmax, Min ([2]; both, po): 143 ng/mL
- Cmax, Ratio of adj geo means Fed/Fasted ([2]; both, po): 134.45%
- Lambda-z, Geometric Mean ([2]; both, po): 0.0543 h⁻¹
- Lambda-z, Max ([2]; both, po): 0.0544 h⁻¹
- Lambda-z, Median ([2]; both, po): 0.0543 h⁻¹
- Lambda-z, Min ([2]; both, po): 0.0544 h⁻¹
- T1/2, Max ([2]; both, po): 12.74 h
- T1/2, Median ([2]; both, po): 12.744 h
- T1/2, Min ([2]; both, po): 12.74 h
- Tmax, Max ([2]; both, po): 20.00 h
- Tmax, Min ([2]; both, po): 6.00 h
- MR AUC(0-last) [2]: 1.056
Compound: C[C@H](CCC(=O)NCC(=O)O)[C@H]1CC[C@H]2[C@@H]3[C@@H](O)C[C@@H]4C[C@H](O)CC[C@]4(C)[C@H]3CC[C@]12C [GUDCA, glycoursodeoxycholic acid]
- steady-state plasma concentrations versus endogenous levels [1]: at least an order of magnitude higher than endogenous levels
